These results are taken from article PMC5883364 (Malaria Journal, 2018).

Series [1] has as its system P. falciparum IPC5202 (artemisinin-resistant, K13 R539T). Briefly: SYBR Green I assay, IC50, strain IPC5202. In kind it is cell-based, Plasmodium falciparum. The following applies: for Resistance Index RIb = IC50 (IPC5202)/IC50 (3D7): IPC5202 vs 3D7; for IC50: Plasmodium falciparum, read-out: P. falciparum IC50 ± SD, IPC5202, strain IPC5202. As to the method: (§1) Staging and parasitaemia were determined by light microscopy of Giemsa-stained thin blood smears. Anti-malarial activity was determined using the SYBR Green I assay, as previously described.

The test system of series [2] is P. falciparum IPC4912 (artemisinin-resistant, K13 I543T). Description: SYBR Green I assay, IC50, strain IPC4912. Type of series: cell-based, Plasmodium falciparum. The following applies: for Resistance Index RIc = IC50 (IPC4912)/IC50 (3D7): IPC4912 vs 3D7; for IC50: Plasmodium falciparum, read-out: P. falciparum IC50 ± SD, IPC4912. On the procedure: Staging and parasitaemia were determined by light microscopy of Giemsa-stained thin blood smears. Anti-malarial activity was determined using the SYBR Green I assay, as previously described. Briefly, early ring stage parasites (> 80% of rings) were challenged with a 1:3 serial dilution of each compound, in concentrations ranging from 10,000–0.169 nM. Fluorescence intensity was measured with a multi-mode microplate reader (Triad, Dynex Technologies), with excitation and emission wavelengths of 485 and 535 nm, respectively, and analysed by nonlinear regression using GraphPad Prism to determine IC50 values.

For series [3], the system named is HepG2-A16 (human hepatoma) cells. The following applies: for Selectivity index LD50 (HepG2)/IC50 (3D7): HepG2 vs 3D7; for Selectivity index LD50 (HepG2)/IC50 (Dd2): HepG2 vs Dd2; for Selectivity index LD50 (HepG2)/IC50 (IPC4912): HepG2 vs IPC4912; for Selectivity index LD50 (HepG2)/IC50 (IPC5202): HepG2 vs IPC5202; for LD50 HepG2: human, 48 h. As to the method: (§2) Cytotoxicity was assessed on the mammalian cell lines HepG2-A16 (human hepatoma) and V79 (Chinese hamster lung), using a MTT based assay, as previously described. […] V79 and HepG2 cell lines were incubated for 24 and 48 h, respectively (media changed at 24 h intervals). Absorbance was read at 570 nm on a multi-mode microplate reader (Triad, Dynex Technologies), to produce a log dose-dependence curve. The LD50 value for each compound was estimated by non-linear interpolation of the dose-dependence curve (GraphPad Software).

Series [4] deals with V79 (Chinese hamster lung) cells. The note with it: for LD50 V79: Chinese hamster, 24 h; for Selectivity index LD50 (V79)/IC50 (3D7): V79 vs 3D7; for Selectivity index LD50 (V79)/IC50 (Dd2): V79 vs Dd2; for Selectivity index LD50 (V79)/IC50 (IPC4912): V79 vs IPC4912; for Selectivity index LD50 (V79)/IC50 (IPC5202): V79 vs IPC5202. On the procedure:
as §2

Another series concerns Plasmodium berghei NK65. Description: Peters' 4-day suppressive test in Swiss albino mice. Type of series: in vivo. The note with it: for inhibition in vivo at 50 mg/kg/day: Plasmodium berghei; for inhibition in vivo at 50 mg/kg/day / Mean parasitaemia ± SD, Day 5 / Mean parasitaemia ± SD, Day 7 / Mean parasitaemia ± SD, Day 10: mice. As to the method: In vivo tests were performed following the Guidelines for Ethical Conduct in The Care and Use of Animals of the Federal University of Rio Grande do Norte—Brazil (CEUA/UFRN/46/2013). Evaluation of anti-malarial activity in vivo was carried out using the Peters’ 4-day suppressive test, with modifications, as previously described. Swiss albino mice were infected with Plasmodium berghei NK65 and randomly allocated to groups of five animals. Animals were treated with 50 mg/kg/day of each of the tested compounds (dissolved in PBS containing 1% DMSO), administrated orally, for four consecutive days. The control group was treated with a solution of PBS/1% DMSO. On days 5 (D5), 7 (D7) and 10 (D10) after parasite inoculation, tail blood smears were Giemsa-stained and examined microscopically to estimate parasitaemia. Acute toxicity testing was carried out to determine adverse effects due to compounds (including weight loss, hair appearance, skin wounds and behavioural changes), and recorded daily.

The test system of series [5] is P. falciparum Dd2 (chloroquine-resistant, mefloquine-resistant). Briefly: SYBR Green I assay, IC50, strain Dd2. Type of series: cell-based, Plasmodium falciparum. The following applies: Dd2 vs 3D7. On the procedure:
as §1

[6] abbreviates: 120 h, 50 mg/kg/day oral for 4 days, day 5, vs control group, read-out: % inhibition of parasite growth, Day 5 (converted).
Setting [7] is: 168 h, 50 mg/kg/day oral for 4 days, day 7, vs control group, read-out: % inhibition of parasite growth, Day 7 (converted).
Where [8] appears, read: 240 h, 50 mg/kg/day oral for 4 days, day 10, vs control group, read-out: % inhibition of parasite growth, Day 10 (converted).
Where [9] appears, read: 50 mg/kg/day oral for 4 days, day 5.

Read-outs that look alike come from different tables or passages of the source. Where only a bound is given, the exact number is not on record here.

As usually defined, the IC50 is the point on the concentration scale where inhibition reaches its midpoint. For `O=S1(=O)N=C(OCC2CCC3(CC2)OOC2(O3)C3CC4CC(C3)CC2C4)c2ccccc21` (centres unmarked) [LC129], in series [1], the “Resistance Index RIb = IC50 (IPC5202)/IC50 (3D7)” value was 0.85 and the IC50 came out at 36.4 ± 0.6 nM. Besides, in series [2], the “Resistance Index RIc = IC50 (IPC4912)/IC50 (3D7)” value turned out to be 0.79 and the IC50 was 29.3 ± 0.7 nM. Also, in series [3], the “Selectivity index LD50 (HepG2)/IC50 (3D7)” value is on record as 23310.0, the “Selectivity index LD50 (HepG2)/IC50 (Dd2)” value came out at 23148.1, the “Selectivity index LD50 (HepG2)/IC50 (IPC4912)” value was found to be 29673.5 and the “Selectivity index LD50 (HepG2)/IC50 (IPC5202)” value is listed as 27502.7. For the same molecule, the “LD50 HepG2” value in series [3] is given as 1.0 mM. Further, in series [4], the LD50 V79 was over 1 mM, the “Selectivity index LD50 (V79)/IC50 (3D7)” value came to 23310.0, the “Selectivity index LD50 (V79)/IC50 (Dd2)” value stood at 23148.1 and the “Selectivity index LD50 (V79)/IC50 (IPC4912)” value amounted to 29673.5. In series [4], the “Selectivity index LD50 (V79)/IC50 (IPC5202)” value is given as 27502.7. In the series on Plasmodium berghei NK65 (50 mg/kg/day oral for 4 days, followed to day 10), the “in vivo outcome against P. berghei in words” value is listed as “failed to completely suppress it”. In addition, in the series with Plasmodium berghei NK65 (setting [6]), the inhibition in vivo at 50 mg/kg/day was 87.6%. The inhibition in vivo at 50 mg/kg/day in the series on Plasmodium berghei NK65 (setting [7]) is 50.7%. The inhibition in vivo at 50 mg/kg/day with Plasmodium berghei NK65 (setting [8]) was 76.7%. Also, in the series with Plasmodium berghei NK65 (setting [9]), the “Mean parasitaemia ± SD, Day 5” value came out at 0.19 ± 0.12%. In addition, in the series with Plasmodium berghei NK65 (50 mg/kg/day oral for 4 days), the “Mean parasitaemia ± SD, Day 7” value was found to be 1.76 ± 1.36% and the “Mean parasitaemia ± SD, Day 10” value was found to be 1.32 ± 1.24%.

For the molecule `CCCCNC(=O)C1CCC2(CC1)OOC1(O2)C2CC3CC(C2)CC1C3` (centres unmarked) [LC92], in series [1], the “Resistance Index RIb = IC50 (IPC5202)/IC50 (3D7)” value came out at 1.41 and the IC50 amounted to 37.7 ± 9.9 nM. Moreover, in series [2], the “Resistance Index RIc = IC50 (IPC4912)/IC50 (3D7)” value is recorded as 1.31 and the IC50 was 34.9 ± 7.9 nM. For the same molecule, in series [3], the “Selectivity index LD50 (HepG2)/IC50 (3D7)” value is on record as 37453.1, the “Selectivity index LD50 (HepG2)/IC50 (Dd2)” value was determined as 44247.8, the “Selectivity index LD50 (HepG2)/IC50 (IPC4912)” value is listed as 28653.3 and the “Selectivity index LD50 (HepG2)/IC50 (IPC5202)” value amounted to 26525.2. Further, in series [3], the “LD50 HepG2” value came to 1.0 mM. Further, in series [4], the LD50 V79 was over 1 mM, the “Selectivity index LD50 (V79)/IC50 (3D7)” value stood at 37453.1, the “Selectivity index LD50 (V79)/IC50 (Dd2)” value was 44247.8 and the “Selectivity index LD50 (V79)/IC50 (IPC4912)” value was 28653.3. Also, the “Selectivity index LD50 (V79)/IC50 (IPC5202)” value in series [4] is reported as 26525.2. Further, the inhibition in vivo at 50 mg/kg/day in the series on Plasmodium berghei NK65 (setting [6]) was 98.3%. Further, in the series on Plasmodium berghei NK65 (setting [7]), the inhibition in vivo at 50 mg/kg/day is 87%. Besides, the inhibition in vivo at 50 mg/kg/day in the series with Plasmodium berghei NK65 (setting [8]) was 86.3%. In addition, the “mice presenting parasitaemia, day 5” value in the series with Plasmodium berghei NK65 (groups of five mice, 50 mg/kg/day oral, day 5) came to 5. In addition, the “Mean parasitaemia ± SD, Day 5” value in the series with Plasmodium berghei NK65 (setting [9]) is recorded as 0.02 ± 0.05%. Also, in the series with Plasmodium berghei NK65 (50 mg/kg/day oral for 4 days), the “Mean parasitaemia ± SD, Day 7” value was found to be 0.46 ± 0.60% and the “Mean parasitaemia ± SD, Day 10” value came to 0.77 ± 0.26%.

As to `CC(C)(C)OC(=O)NCCCCNC1CCC2(CC1)OOC1(O2)C2CC3CC(C2)CC1C3` (centres unmarked) [MIS14], the “Resistance Index RIa = IC50 (Dd2)/IC50 (3D7)” value in series [5] stood at 1.1. For the same molecule, in series [1], the IC50 came to 413 ± 20.2 nM. Besides, the IC50 in series [2] worked out at 390 ± 17.8 nM. Moreover, in series [3], the “Selectivity index LD50 (HepG2)/IC50 (3D7)” value came to 8439.9, the “Selectivity index LD50 (HepG2)/IC50 (Dd2)” value is recorded as 7399.1, the “Selectivity index LD50 (HepG2)/IC50 (IPC4912)” value is reported as 847.2 and the “Selectivity index LD50 (HepG2)/IC50 (IPC5202)” value came out at 798.8. Also, the “LD50 HepG2” value in series [3] is listed as 0.3 mM. Further, in series [3] (maximum dose of 1 mM), the “decrease in HepG2 survival” value is on record as about 30%. Besides, in series [4], the LD50 V79 was over 1 mM, the “Selectivity index LD50 (V79)/IC50 (3D7)” value worked out at 25575.4, the “Selectivity index LD50 (V79)/IC50 (Dd2)” value is 22421.5 and the “Selectivity index LD50 (V79)/IC50 (IPC4912)” value worked out at 2567.4. Also, the “Selectivity index LD50 (V79)/IC50 (IPC5202)” value in series [4] stood at 2420.7.
